Laboratory results taken from the NIST ThermoML archive (doi:10.1016/j.tca.2013.09.032).

Conditions: 101.33 kPa, Crystal, Vacuum adiabatic calorimetry

Cc1cc2nc3c(=O)[nH]c(=O)nc-3n(C[C@H](O)[C@H](O)[C@H](O)CO)c2cc1C [riboflavin]
Conditions	molar entropy [J/K/mol]
1 K	0.0261
2 K	0.105
3 K	0.235
4 K	0.418
5 K	0.653
6 K	0.941
7 K	1.28
8 K	1.66
9 K	2.1
10 K	2.58
15 K	5.898
20 K	10.48
25 K	15.97
30 K	22.23
35 K	29.06
40 K	36.3
45 K	43.84
50 K	51.59
60 K	67.55
70 K	83.87
80 K	100.3
90 K	116.8
100 K	133.4
110 K	149.9
120 K	166.2
130 K	182.4
140 K	198.4
150 K	214.3
160 K	230.1
170 K	245.7
180 K	261.3
190 K	276.8
200 K	292.2
210 K	307.5
220 K	322.7
230 K	337.9
240 K	353
250 K	368
260 K	383
270 K	397.9
273.15 K	402.6
280 K	412.8
290 K	427.7
298.15 K	439.8
310 K	457.3
320 K	472.1
322 K	475
